Measured values published in patent publication US20260265233A1, “BENZOTHIOPHENE DERIVATIVES AS RXFP1 AGONISTS” (BRISTOL-MYERS SQUIBB COMPANY, priority 2021, published 2026).

Target: T1, human RXFP1 (Homo sapiens, UniProt Q9HBX9)
T1 construct: expressed in transfected cells
T1 sequence (Q9HBX9 1-757): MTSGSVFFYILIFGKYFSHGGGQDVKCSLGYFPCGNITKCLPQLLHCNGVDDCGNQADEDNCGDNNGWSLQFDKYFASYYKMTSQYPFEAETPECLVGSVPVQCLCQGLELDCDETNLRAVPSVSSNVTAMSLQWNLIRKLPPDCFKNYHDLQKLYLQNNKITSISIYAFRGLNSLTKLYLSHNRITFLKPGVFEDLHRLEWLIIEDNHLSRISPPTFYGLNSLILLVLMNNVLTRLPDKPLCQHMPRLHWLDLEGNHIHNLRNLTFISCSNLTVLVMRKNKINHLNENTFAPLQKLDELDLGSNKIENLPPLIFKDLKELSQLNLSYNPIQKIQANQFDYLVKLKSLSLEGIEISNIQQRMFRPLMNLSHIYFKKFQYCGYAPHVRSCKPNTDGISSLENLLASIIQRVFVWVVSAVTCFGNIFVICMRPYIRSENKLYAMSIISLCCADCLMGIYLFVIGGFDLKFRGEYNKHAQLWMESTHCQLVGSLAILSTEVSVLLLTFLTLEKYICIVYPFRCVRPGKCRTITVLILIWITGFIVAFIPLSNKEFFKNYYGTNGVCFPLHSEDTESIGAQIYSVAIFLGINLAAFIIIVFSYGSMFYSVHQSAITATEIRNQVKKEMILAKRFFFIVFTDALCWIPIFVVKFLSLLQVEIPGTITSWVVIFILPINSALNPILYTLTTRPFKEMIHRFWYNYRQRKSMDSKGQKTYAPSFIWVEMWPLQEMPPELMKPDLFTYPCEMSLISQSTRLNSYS
Test: hRXFP1 HEK293 cAMP assay (HTRF)
Assay type: cell-based
Settings: HEK293 cells stably expressing human RXFP1; 30 min at rt; intracellular cAMP by HTRF
Summary of the method: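 HEK293 cells stably expressing human RXFP1 treated 30 min at rt with compound (0.010 nM to 50 μM, 2% DMSO) in HBSS/HEPES buffer with 0.5 mM IBMX. Intracellular cAMP measured by HTRF (665/590 nm ratio) against a cAMP standard curve; potency fitted by 4-parameter logistic.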

| SMILES | EC50 [nM] |
| --- | --- |
| COc1ccc(-c2cc(C(NC(=O)C3CCOCC3)C(F)(F)F)ccc2F)cc1C(=O)Nc1c(C(=O)Nc2ccc(F)c(C(F)(F)F)c2)sc2cc(C(F)(F)F)ccc12 (single isomer, unassigned) [Example 21, N-(2,2,2-trifluoro-1-(6-fluoro-3′-((2-((4-fluoro-3-(trifluoromethyl)phenyl)carbamoyl)-6-(trifluoromethyl)benzo[b]thiophen-3-yl)carbamoyl)-4′-methoxy-[1,1′-biphenyl]-3-yl)ethyl)tetrahydro-2H-pyran-4-carboxamide] | 363 |
| COc1ccc(C2CC2C(=O)NC2CCOCC2)cc1C(=O)Nc1c(C(=O)Nc2ccc(F)c(C(F)(F)F)c2)sc2cc(C(F)(F)F)ccc12 (single isomer, unassigned) [Example 157, N-[4-fluoro-3-(trifluoromethyl)phenyl]-3-(2-methoxy-5-{2-[(oxan-4-yl)carbamoyl]cyclopropyl}benzamido)-6-(trifluoromethyl)-1-benzothiophene-2-carboxamide] | 1040 |
| COc1ccc(C(=O)N2CC[C@@H](O)C2)cc1C(=O)Nc1c(C(=O)Nc2ccc(F)c(C(F)(F)F)c2)sc2cc(C3CC3)ncc12 [Example 195, (R)-6-cyclopropyl-N-(4-fluoro-3-(trifluoromethyl)phenyl)-3-(5-(3-hydroxy-pyrrolidine-1-carbonyl)-2-methoxy-benzamido) thieno[3,2-c] pyridine-2-carboxamide] | 910 |
| COc1ncc(C(=O)N2CC(O)C2)cc1C(=O)Nc1c(C(=O)Nc2ccc(F)c(C(F)(F)F)c2)sc2cc(C(F)(F)F)ccc12 [Example 173, N-(2-((4-fluoro-3-(trifluoromethyl)phenyl)carbamoyl)-6-(trifluoromethyl)benzo[b]thiophen-3-yl)-5-(3-hydroxyazetidine-1-carbonyl)-2-methoxy-nicotinamide] | 179 |
| COc1ccc(C2=NOC3(C2)CN(C(=O)CO)C3)cc1C(=O)Nc1c(C(=O)Nc2ccc(F)c(C(F)(F)F)c2)sc2cc(C(F)(F)F)ccc12 [Example 285, N-(4-fluoro-3-(trifluoromethyl)phenyl)-3-(5-(2-(2-hydroxyacetyl)-5-oxa-2,6-diazaspiro[3.4]oct-6-en-7-yl)-2-methoxy-benzamido)-6-(trifluoromethyl) benzo[b] thiophene-2-carboxamide] | 1860 |
| COc1ccc(C2CCCN(C(=O)C3CCC3)C2)cc1C(=O)Nc1c(C(=O)Nc2ccc(F)c(C(F)(F)F)c2)sc2cc(C(F)(F)F)ccc12 (centres unmarked) [Example 98, 3-(5-(1-(cyclobutane-carbonyl)piperidin-3-yl)-2-methoxy-benzamido)-N-(4-fluoro-3-(trifluoromethyl)phenyl)-6-(trifluoromethyl) benzo[b] thiophene-2-carboxamide] | 186 |
| COc1ccc(-c2cc(C(=O)O)ccc2F)cc1C(=O)Nc1c(C(=O)Nc2ccc(F)c(C(F)(F)F)c2)sc2nc(C)ccc12 [Example 288, 6-fluoro-3′-[(2-{[4-fluoro-3-(trifluoromethyl)phenyl]carbamoyl}-6-methylthieno[2,3-b]pyridin-3-yl)carbamoyl]-4′-methoxy-[1,1′-biphenyl]-3-carboxylic acid] | 4260 |
| COc1ccc(C2CC3(C2)CN(CCS(C)(=O)=O)C3)cc1C(=O)Nc1c(C(=O)Nc2ccc(F)c(C(F)(F)F)c2)sc2cc(C(F)(F)F)ccc12 [Example 205, N-(4-fluoro-3-(trifluoromethyl)phenyl)-3-(2-methoxy-5-(2-(2-(methylsulfonyl)ethyl)-2-azaspiro[3.3]heptan-6-yl)benzamido)-6-(trifluoromethyl) benzo[b] thiophene-2-carboxamide] | 1100 |

Now from value to molecule:

| EC50 [nM] | SMILES |
| --- | --- |
| 560 | COc1ccc(C#CC(C)(C)O)cc1C(=O)Nc1c(C(=O)Nc2ccc(F)c(C(F)(F)F)c2)sc2cc(C(F)(F)F)ccc12 [Example 124, N-(4-fluoro-3-(trifluoromethyl)phenyl)-3-(5-(3-hydroxy-3-methylbut-1-yn-1-yl)-2-methoxybenz-amido)-6-(trifluoromethyl) benzo[b] thiophene-2-carboxamide] |
| 237 | COC(=O)C(=O)N1CCCC(c2ccc(OC)c(C(=O)Nc3c(C(=O)Nc4ccc(F)c(C(F)(F)F)c4)sc4cc(C(F)(F)F)ccc34)c2)C1 (centres unmarked) [Example 80, methyl 2-(3-(3-((2-((4-fluoro-3-(trifluoromethyl)phenyl)carbamoyl)-6-(trifluoromethyl)benzo[b]thiophen-3-yl)carbamoyl)-4-methoxyphenyl)piperidin-1-yl)-2-oxoacetate] |
| 5.2 | COc1ccc(C(=O)N2CC(S(C)(=O)=O)C2)cc1C(=O)Nc1c(C(=O)Nc2ccc(F)c(C(F)(F)F)c2)sc2cc(C(F)(F)F)ccc12 [Example 178, N-(4-fluoro-3-(trifluoromethyl)phenyl)-3-(2-methoxy-5-(3-(methylsulfonyl)azetidine-1-carbonyl)benzamido)-6-(trifluoromethyl) benzo[b] thiophene-2-carboxamide] |
| 5000 | COc1ccc(C2=NOC3(CNC3)C2)cc1C(=O)Nc1c(C(=O)Nc2ccc(F)c(C(F)(F)F)c2)sc2cc(C(F)(F)F)ccc12 [Example 286, N-(4-fluoro-3-(trifluoromethyl)phenyl)-3-(2-methoxy-5-(5-oxa-2,6-diazaspiro[3.4]oct-6-en-7-yl)benzamido)-6-(trifluoromethyl) benzo[b] thiophene-2-carboxamide] |
| 36.1 | COc1ccc(C(=O)NCC(C)(C)S(C)(=O)=O)cc1C(=O)Nc1c(C(=O)Nc2ccc(F)c(C(F)(F)F)c2)sc2cc(C(F)(F)F)ccc12 [Example 203, N3-(2-{[4-fluoro-3-(trifluoromethyl)phenyl]carbamoyl}-6-(trifluoromethyl)-1-benzothiophen-3-yl)-N1-(2-methanesulfonyl-2-methylpropyl)-4-methoxybenzene-1,3-dicarboxamide] |
| 375 | COc1ccc(N2CCCC(C(=O)O)C2)cc1C(=O)Nc1c(C(=O)Nc2ccc(F)c(C(F)(F)F)c2)sc2cc(C(F)(F)F)ccc12 (single isomer, unassigned) [Example 4, 1-(3-((2-((4-fluoro-3-(trifluoromethyl)phenyl)carbamoyl)-6-(trifluoromethyl)benzo[b]thiophen-3-yl)carbamoyl)-4-methoxyphenyl) piperidine-3-carboxylic acid] |
| 1100 | COc1ccc(C2CCN(C(=O)CC#N)C2)cc1C(=O)Nc1c(C(=O)Nc2ccc(F)c(C(F)(F)F)c2)sc2cc(C(F)(F)F)ccc12 (centres unmarked) [Example 146, 3-(5-(1-(2-cyanoacetyl)pyrrolidin-3-yl)-2-methoxy-benzamido)-N-(4-fluoro-3-(trifluoromethyl)phenyl)-6-(trifluoromethyl) benzo[b] thiophene-2-carboxamide] |
| 870 | COc1ccc(C2CCCN(C(=O)CN(C)C)C2)cc1C(=O)Nc1c(C(=O)Nc2ccc(F)c(C(F)(F)F)c2)sc2cc(C(F)(F)F)ccc12 (centres unmarked) [Example 95, 3-(5-(1-(dimethylglycyl)piperidin-3-yl)-2-methoxy-benzamido)-N-(4-fluoro-3-(trifluoromethyl)phenyl)-6-(trifluoromethyl) benzo[b] thiophene-2-carboxamide] |
| 1160 | COc1ccc(C2CCCN(C(=O)CN(C)C)C2)cc1C(=O)Nc1c(C(=O)Nc2ccc(F)c(C(F)(F)F)c2)sc2cc(C(F)(F)F)ccc12 (single isomer, unassigned) [Example 87, 3-(5-(1-(dimethylglycyl)piperidin-3-yl)-2-methoxy-benzamido)-N-(4-fluoro-3-(trifluoromethyl)phenyl)-6-(trifluoromethyl) benzo[b] thiophene-2-carboxamide] |
